In this test the target is T1, human S1P1 receptor (Homo sapiens, UniProt P21453).
T1 construct: expressed in transfected cells; membranes were used
Kind of test: GTP γ35S binding assay for S1P1 activity. Format: biochemical. The following applies: membranes of cells stably expressing the S1P1 receptor, agonist potency. The procedure: Compounds were synthesized and tested for S1P1 activity using the GTP γ^35S binding assay. These compounds may be assessed for their ability to activate or block activation of the human S1P1 receptor in cells stably expressing the S1P1 receptor.
GTP γ^355 binding was measured in the medium containing (mM) HEPES 25, pH 7.4, MgCl2 10, NaCl 100, dithiothreitol 0.5, digitonin 0.003%, 0.2 nM GTP γ^35 S, and 5 μg membrane protein in a volume of 150 μl. Test compounds were included in the concentration range from 0.08 to 5,000 nM unless indicated otherwise. Membranes were incubated with 100 μM 5′ adenylylimidodiphosphate for 30 min, and subsequently with 10 μM GDP for 10 min on ice. Drug solutions and membrane were mixed, and then reactions were initiated by adding GTP γ^35S and continued for 30 min at 25° C. Reaction mixtures were filtered over Whatman GF/B filters under vacuum, and washed three times with 3 mL of ice-cold buffer (HEPES 25, pH7.4, MgCl2 10 and NaCl 100). Filters were dried and mixed with scintillant, and counted for ^35S activity using a β-counter. Agonist-induced GTP γ^35S binding was obtained by subtracting that in the absence of agonist. Binding data were analyzed using a non-linear regression method. In case of antagonist assay, the reaction mixture contained 10 nM S1P in the presence of test antagonist at concentrations ranging from 0.08 to 5000 nM.
On the technique in general: GTPγS resists hydrolysis and so accumulates on activated G proteins.

Molecules are shown by their SMILES.

T1 sequence (P21453 whole entry): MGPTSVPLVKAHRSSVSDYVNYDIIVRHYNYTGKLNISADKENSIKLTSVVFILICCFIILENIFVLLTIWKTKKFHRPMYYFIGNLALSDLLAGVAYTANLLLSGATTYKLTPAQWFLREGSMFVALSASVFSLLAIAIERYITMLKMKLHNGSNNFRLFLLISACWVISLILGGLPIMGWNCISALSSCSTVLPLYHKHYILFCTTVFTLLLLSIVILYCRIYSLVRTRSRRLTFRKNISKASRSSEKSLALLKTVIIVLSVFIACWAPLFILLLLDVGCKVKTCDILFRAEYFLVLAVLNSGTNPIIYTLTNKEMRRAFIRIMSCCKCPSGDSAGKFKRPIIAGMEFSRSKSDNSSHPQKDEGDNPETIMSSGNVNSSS

`Cc1nn(C(=O)CCc2ccc(CNCCC(=O)O)cc2)c2c1C1C(C2)C1(C)C` (stereo not shown) [Compound 1, 3-({4-[3-oxo-3-(3,4,4-trimethyl-3b,4,4a,5-tetrahydro-1H-cyclopropa[3,4]cyclopenta[1,2-c]pyrazol-1-yl)propyl]benzyl}amino)propanoic acid]: the 50% effective concentration (EC50) – broadly, the midpoint of the concentration-response curve – was determined as 262 nM.
